Assay [1] deals with T1, recombinant human PERK protein (Homo sapiens, UniProt Q9NZJ5).
T1 sequence (Q9NZJ5 30-1116): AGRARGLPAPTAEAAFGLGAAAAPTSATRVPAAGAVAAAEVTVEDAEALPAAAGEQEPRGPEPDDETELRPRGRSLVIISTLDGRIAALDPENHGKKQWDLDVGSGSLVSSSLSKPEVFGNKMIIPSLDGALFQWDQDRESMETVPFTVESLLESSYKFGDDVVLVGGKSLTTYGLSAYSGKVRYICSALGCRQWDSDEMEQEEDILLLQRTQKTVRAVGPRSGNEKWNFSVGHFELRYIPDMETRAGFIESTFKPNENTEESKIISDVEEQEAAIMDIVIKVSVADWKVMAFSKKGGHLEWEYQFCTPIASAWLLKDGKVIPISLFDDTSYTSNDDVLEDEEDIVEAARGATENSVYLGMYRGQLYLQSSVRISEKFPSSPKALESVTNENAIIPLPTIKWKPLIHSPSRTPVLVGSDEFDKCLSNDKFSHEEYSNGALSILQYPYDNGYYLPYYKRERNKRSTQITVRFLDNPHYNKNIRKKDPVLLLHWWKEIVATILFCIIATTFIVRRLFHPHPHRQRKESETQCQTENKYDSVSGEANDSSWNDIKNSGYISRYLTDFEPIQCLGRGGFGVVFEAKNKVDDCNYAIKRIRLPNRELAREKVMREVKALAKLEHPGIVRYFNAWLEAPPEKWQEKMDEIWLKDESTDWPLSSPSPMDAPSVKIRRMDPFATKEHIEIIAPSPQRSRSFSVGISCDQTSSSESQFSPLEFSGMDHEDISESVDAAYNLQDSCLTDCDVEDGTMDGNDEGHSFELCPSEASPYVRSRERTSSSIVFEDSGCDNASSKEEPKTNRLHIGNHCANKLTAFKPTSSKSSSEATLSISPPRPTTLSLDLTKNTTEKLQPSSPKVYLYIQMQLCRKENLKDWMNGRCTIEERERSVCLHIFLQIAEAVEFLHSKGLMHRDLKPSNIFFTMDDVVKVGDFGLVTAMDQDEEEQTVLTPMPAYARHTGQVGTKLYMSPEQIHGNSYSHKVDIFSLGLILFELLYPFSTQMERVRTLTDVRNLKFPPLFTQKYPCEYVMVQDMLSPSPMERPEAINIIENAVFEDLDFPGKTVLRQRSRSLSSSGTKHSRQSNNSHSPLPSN
Description: PKR-like endoplasmic reticulum kinase (PERK) inhibitory capacity, 33P-ATP filter assay. It counts as biochemical. The conditions noted are these: 15 uM [gamma-33P-ATP], 40 minutes, room temperature. The procedure:
<Experimental Example 1> Evaluation of PKR-Like Endoplasmic Reticulum Kinase (PERK) Inhibitory Capacity
A recombinant human PERK protein was mixed with the compound in a reaction solution (8 mM MOPS pH 7.0, 0.2 mM EDTA, 300 uM RSRSRSRSRSRSRSR, 10 mM Magnesium acetate, 15 uM [gamma-33P-ATP]) and reacted at room temperature for 40 minutes. Then, the reaction was terminated by adding phosphoric acid (0.5%) to the reaction mixture, and 10 ul of the reaction solution was dropped onto a P30 filter. The filter was washed four times in a 0.425% phosphoric acid solution for 4 minutes, then washed once more in methanol, dried, and the PERK activity was measured by scintillation counting. […] The compound was diluted by 1/3 from the highest concentration of 1 uM and treated with a total of 9 concentrations to evaluate the degree of inhibition.

Assay [2] has as its target recombinant human GCN2 protein (Homo sapiens, UniProt Q9P2K8). As to the kind of experiment: General control nonderepressible 2 (GCN2) inhibitory capacity, 33P-ATP filter assay. It counts as biochemical. The note with it: recombinant human GCN2, 70 uM [gamma-33P-ATP], 40 minutes, room temperature. The procedure:
<Experimental Example 2> Evaluation of General Control Nonderepressible 2 (GCN2) Inhibitory Capacity
A recombinant human GCN2 protein was mixed with the compound in a reaction solution (20 mM Tris/HCl pH8.5, 0.2 mM EDTA, 0.1% Tween, 100 mM NaCl, 300 μM RSRSRSRSRSRSRSR, 10 mM Magnesium acetate, 70 uM [gamma-33P-ATP]) and reacted at room temperature for 40 minutes. Then, the reaction was terminated by adding phosphoric acid (0.5%) to the reaction mixture, and 10 ul of the reaction solution was dropped onto a P30 filter. The filter was washed four times in a 0.425% phosphoric acid solution for 4 minutes, then washed once more in methanol, dried, and the GCN2 activity was measured by scintillation counting. […] The compound was diluted by 1/3 from the highest concentration of 1 uM and treated with a total of 9 concentrations to evaluate the degree of inhibition.

The record followed here is patent US20260184706A1, “PHENYLSULFONAMIDE DERIVATIVES, PREPARATION METHOD THEREFOR, AND PHARMACEUTICAL COMPOSITION FOR PREVENTION OR TREATMENT OF CANCER CONTAINING SAME AS ACTIVE INGREDIENT” (Korea Research Institute of Chemical Technology, priority 2022, published 2026).

As usually defined, the IC50 is the point on the concentration scale where inhibition reaches its midpoint.

The structures appear in SMILES notation.

Sequence of recombinant human GCN2 protein (Q9P2K8 whole entry): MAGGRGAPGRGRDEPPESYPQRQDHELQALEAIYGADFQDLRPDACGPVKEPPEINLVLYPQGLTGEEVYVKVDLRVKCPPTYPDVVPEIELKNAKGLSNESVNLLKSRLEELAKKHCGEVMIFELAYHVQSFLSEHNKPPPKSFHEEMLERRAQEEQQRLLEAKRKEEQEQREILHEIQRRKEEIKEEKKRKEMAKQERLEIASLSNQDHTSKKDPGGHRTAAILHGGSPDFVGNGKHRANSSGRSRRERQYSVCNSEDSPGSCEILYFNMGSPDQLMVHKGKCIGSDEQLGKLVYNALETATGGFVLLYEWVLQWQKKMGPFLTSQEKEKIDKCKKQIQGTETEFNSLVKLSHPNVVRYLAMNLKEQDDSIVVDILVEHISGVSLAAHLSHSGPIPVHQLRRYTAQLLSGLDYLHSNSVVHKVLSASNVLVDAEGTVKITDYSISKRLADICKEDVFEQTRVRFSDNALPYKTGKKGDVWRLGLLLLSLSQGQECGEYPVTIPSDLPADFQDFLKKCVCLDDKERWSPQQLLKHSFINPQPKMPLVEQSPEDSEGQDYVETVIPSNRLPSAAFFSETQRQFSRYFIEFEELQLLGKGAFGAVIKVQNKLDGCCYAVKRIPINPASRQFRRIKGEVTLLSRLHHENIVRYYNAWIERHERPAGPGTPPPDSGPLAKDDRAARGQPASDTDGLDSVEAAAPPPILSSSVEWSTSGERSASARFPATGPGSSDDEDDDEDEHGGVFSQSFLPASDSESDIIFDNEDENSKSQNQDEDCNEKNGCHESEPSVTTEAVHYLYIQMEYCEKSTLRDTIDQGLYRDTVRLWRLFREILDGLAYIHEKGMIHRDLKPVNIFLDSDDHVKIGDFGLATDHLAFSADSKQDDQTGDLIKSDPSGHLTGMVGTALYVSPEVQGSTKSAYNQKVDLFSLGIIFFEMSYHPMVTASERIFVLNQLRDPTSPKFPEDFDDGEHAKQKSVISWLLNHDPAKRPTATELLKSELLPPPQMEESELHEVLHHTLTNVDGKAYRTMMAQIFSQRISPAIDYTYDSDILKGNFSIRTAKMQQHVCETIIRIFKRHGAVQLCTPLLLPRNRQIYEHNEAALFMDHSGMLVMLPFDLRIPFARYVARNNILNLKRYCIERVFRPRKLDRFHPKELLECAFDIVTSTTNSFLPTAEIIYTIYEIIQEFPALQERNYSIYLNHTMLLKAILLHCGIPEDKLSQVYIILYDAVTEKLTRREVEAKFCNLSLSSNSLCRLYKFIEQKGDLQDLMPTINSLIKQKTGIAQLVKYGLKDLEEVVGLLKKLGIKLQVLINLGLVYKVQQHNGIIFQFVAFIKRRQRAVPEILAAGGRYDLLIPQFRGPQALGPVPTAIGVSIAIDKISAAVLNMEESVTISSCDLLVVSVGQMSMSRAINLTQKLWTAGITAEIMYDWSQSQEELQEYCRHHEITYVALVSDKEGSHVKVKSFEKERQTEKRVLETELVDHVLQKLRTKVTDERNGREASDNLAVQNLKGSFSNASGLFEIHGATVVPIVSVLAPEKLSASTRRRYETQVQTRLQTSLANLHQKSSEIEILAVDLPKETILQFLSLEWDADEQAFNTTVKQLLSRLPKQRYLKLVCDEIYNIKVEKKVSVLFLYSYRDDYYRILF

`Cc1nn(C)c(C(F)(F)F)c1S(=O)(=O)Nc1ccc(F)c(-c2cc3cnc(N)nc3n(C)c2=O)c1F` [Example 1, N-(3-(2-amino-8-methyl-7-oxo-7,8-dihydropyrido[2,3-d]pyrimidin-6-yl)-2,4-difluorophenyl)-1,3-dimethyl-5-(trifluoromethyl)-1H-pyrazole-4-sulfonamide]: the values for the half-inhibitory concentration (IC50) in assay [1] and in assay [2] were 300 to 1000 nM and 100 to 300 nM, respectively.
Taken in the same sequence, the figures for `Cc1nn(C)c(Cl)c1S(=O)(=O)Nc1ccc(F)c(-c2cc3cnc(N)nc3n(C)c2=O)c1F` [Example 2, N-(3-(2-amino-8-methyl-7-oxo-7,8-dihydropyrido[2,3-d]pyrimidin-6-yl)-2,4-difluorophenyl)-5-chloro-1,3-dimethyl-1H-pyrazole-4-sulfonamide] were 300 to 1000 nM and greater than 1000 nM.
The corresponding values for `Cc1nn(C)c(C)c1S(=O)(=O)Nc1ccc(F)c(-c2cc3cnc(N)nc3n(C)c2=O)c1F` [Example 3, N-(3-(2-amino-8-methyl-7-oxo-7,8-dihydropyrido[2,3-d]pyrimidin-6-yl)-2,4-difluorophenyl)-1,3,5-trimethyl-1H-pyrazole-4-sulfonamide] are greater than 1000 nM and 300 to 1000 nM.
The corresponding values for `COc1ncc(Cl)cc1S(=O)(=O)Nc1ccc(F)c(-c2cc3cnc(N)nc3n(C)c2=O)c1F` [Example 4, N-(3-(2-amino-8-methyl-7-oxo-7,8-dihydropyrido[2,3-d]pyrimidin-6-yl)-2,4-difluorophenyl)-5-chloro-2-methoxypyridine-3-sulfonamide] are less than 100 nM and greater than 1000 nM.
Take `Cc1n[nH]c(C)c1S(=O)(=O)Nc1ccc(F)c(-c2cc3cnc(N)nc3n(C)c2=O)c1F` [Example 5, N-(3-(2-amino-8-methyl-7-oxo-7,8-dihydropyrido[2,3-d]pyrimidin-6-yl)-2,4-difluorophenyl)-3,5-dimethyl-1H-pyrazole-4-sulfonamide]: the IC50 in assay [1] and in assay [2] was greater than 1000 nM in each case.
As for `Cn1c(=O)c(-c2c(F)ccc(NS(=O)(=O)c3ccc(Cl)nc3)c2F)cc2cnc(N)nc21` [Example 6, N-(3-(2-amino-8-methyl-7-oxo-7,8-dihydropyrido[2,3-d]pyrimidin-6-yl)-2,4-difluorophenyl)-6-chloropyridine-3-sulfonamide], the IC50 in assay [1] and in assay [2] was greater than 1000 nM each time.
On to `Cn1ccc2c(S(=O)(=O)Nc3ccc(F)c(-c4cc5cnc(N)nc5n(C)c4=O)c3F)cccc21` [Example 7, N-(3-(2-amino-8-methyl-7-oxo-7,8-dihydropyrido[2,3-d]pyrimidin-6-yl)-2,4-difluorophenyl)-1-methyl-1H-indole-4-sulfonamide], for which the half-inhibitory concentration (IC50) in assay [1] was less than 100 nM; in assay [2], 100 to 300 nM.
The corresponding values for `Cc1nn(C(F)F)c(C)c1S(=O)(=O)Nc1ccc(F)c(-c2cc3cnc(N)nc3n(C)c2=O)c1F` [Example 8, N-(3-(2-amino-8-methyl-7-oxo-7,8-dihydropyrido[2,3-d]pyrimidin-6-yl)-2,4-difluorophenyl)-1-(difluoromethyl)-3,5-dimethyl-1H-pyrazole-4-sulfonamide] are greater than 1000 nM and greater than 1000 nM.
On to `Cc1c(S(=O)(=O)Nc2ccc(F)c(-c3cc4cnc(N)nc4n(C)c3=O)c2F)c(Cl)nn1C` [Example 9, N-(3-(2-amino-8-methyl-7-oxo-7,8-dihydropyrido[2,3-d]pyrimidin-6-yl)-2,4-difluorophenyl)-3-chloro-1,5-dimethyl-1H-pyrazole-4-sulfonamide], for which the half-inhibitory concentration (IC50) is greater than 1000 nM in assay [1] and 300 to 1000 nM in assay [2].
Taken in the same sequence, the figures for `Cc1c(S(=O)(=O)Nc2ccc(F)c(-c3cc4cnc(N)nc4n(C)c3=O)c2F)c(CO)nn1C` [Example 10, N-(3-(2-amino-8-methyl-7-oxo-7,8-dihydropyrido[2,3-d]pyrimidin-6-yl)-2,4-difluorophenyl)-3-(hydroxymethyl)-1,5-dimethyl-1H-pyrazole-4-sulfonamide] were greater than 1000 nM and greater than 1000 nM.
The corresponding values for `Cn1c(=O)c(-c2c(F)ccc(NS(=O)(=O)c3cccnc3Cl)c2F)cc2cnc(N)nc21` [Example 11, N-(3-(2-amino-8-methyl-7-oxo-7,8-dihydropyrido[2,3-d]pyrimidin-6-yl)-2,4-difluorophenyl)-2-chloropyridine-3-sulfonamide] are 100 to 300 nM and 100 to 300 nM.
The corresponding values for `Cn1c(=O)c(-c2c(F)ccc(NS(=O)(=O)c3cc(F)ccc3F)c2F)cc2cnc(N)nc21` [Example 12, N-(3-(2-amino-8-methyl-7-oxo-7,8-dihydropyrido[2,3-d]pyrimidin-6-yl)-2,4-difluorophenyl)-2,5-difluorobenzene sulfonamide] are less than 100 nM and 100 to 300 nM.
`Cc1noc(C)c1S(=O)(=O)Nc1ccc(F)c(-c2cc3cnc(N)nc3n(C)c2=O)c1F` [Example 13, N-(3-(2-amino-8-methyl-7-oxo-7,8-dihydropyrido[2,3-d]pyrimidin-6-yl)-2,4-difluorophenyl)-3,5-dimethylisoxazole-4-sulfonamide]: the IC50 lay in the range of 300 to 1000 nM in assay [1] and 100 to 300 nM in assay [2].
The corresponding values for `Cn1c(=O)c(-c2c(F)ccc(NS(=O)(=O)c3cc(Cl)ccc3Cl)c2F)cc2cnc(N)nc21` [Example 14, N-(3-(2-amino-8-methyl-7-oxo-7,8-dihydropyrido[2,3-d]pyrimidin-6-yl)-2,4-difluorophenyl)-2,5-dichlorobenzenesulfonamide] are less than 100 nM and less than 100 nM.
As for `Cn1c(=O)c(-c2c(F)ccc(NS(=O)(=O)c3c(Cl)nc4sccn34)c2F)cc2cnc(N)nc21` [Example 15, N-(3-(2-amino-8-methyl-7-oxo-7,8-dihydropyrido[2,3-d]pyrimidin-6-yl)-2,4-difluorophenyl)-6-chloroimidazo[2,1-b]thiazole-5-sulfonamide], the IC50 fell in the range of 100 to 300 nM in assay [1] and 300 to 1000 nM in assay [2].
Taken in the same sequence, the figures for `Cn1c(=O)c(-c2c(F)ccc(NS(=O)(=O)c3cccc4ccccc34)c2F)cc2cnc(N)nc21` [Example 16, N-(3-(2-amino-8-methyl-7-oxo-7,8-dihydropyrido[2,3-d]pyrimidin-6-yl)-2,4-difluorophenyl)naphthalene-1-sulfonamide] were less than 100 nM and 100 to 300 nM.
Consider `Cn1cc(S(=O)(=O)Nc2ccc(F)c(-c3cc4cnc(N)nc4n(C)c3=O)c2F)c(C(F)(F)F)n1` [Example 17, N-(3-(2-amino-8-methyl-7-oxo-7,8-dihydropyrido[2,3-d]pyrimidin-6-yl)-2,4-difluorophenyl)-1-methyl-3-(trifluoromethyl)-1H-pyrazole-4-sulfonamide], for which the IC50 in assay [1] fell in the range of 100 to 300 nM; in assay [2], 300 to 1000 nM.
The corresponding values for `Cn1c(=O)c(-c2c(F)ccc(NS(=O)(=O)c3cc(C(F)(F)F)ccc3Cl)c2F)cc2cnc(N)nc21` [Example 18, N-(3-(2-amino-8-methyl-7-oxo-7,8-dihydropyrido[2,3-d]pyrimidin-6-yl)-2,4-difluorophenyl)-2-chloro-5-(trifluoromethyl)benzenesulfonamide] are less than 100 nM and 100 to 300 nM.
